Where only a bound is given, the exact number is not on record here.

The term melting point denotes the temperature of the solid-liquid transition. The molecule `CCOCc1nc2c(c3cc(OCc4ccccc4)ccc3n3nnnc23)n1CC(C)C` came in with a melting point of 184 °C.
The result for `O=C(COc1ccc2ccc(=O)oc2c1)c1ccccc1` reads 163 to 165 °C; that for `O=C(O)C1=Cc2cc(OCc3ccccc3)c(OCc3ccccc3)cc2CCC1`, 180 to 181 °C.
In the case of `CCOC(=O)c1cc2cc([N+](=O)[O-])cc(CC)c2o1`, the melting point is 114 to 116 °C.
The result for `O=[N+]([O-])c1cn2c(n1)OC[C@@H](OCc1csc(-c3ccc(OC(F)(F)F)cc3)n1)C2` reads 140 to 141 °C; that for `C[C@@H]1CN(C(=O)OC(C)(C)C)C[C@H]2Cc3cc(F)c(C=O)nc3N21`, 139 to 140 °C; that for `NNc1cc(OC2CCCC2)c(Cl)cc1F`, 77 to 79 °C.
The result for `Cc1cc2c(cc1C13CC1CCC3=O)C(C)(C)CCC2(C)C` (stereo not drawn) reads 152 to 154 °C; that for `CCCCNc1ccn2ncc(Br)c2n1`, 94 to 95 °C; that for `OCc1ccc2c(ccc3c4ccccc4ccc23)c1`, 261 to 262 °C.
Take `CC1Cc2c(cc(C(C)(C)C)c(O)c2C(C)(C)C)S1` (stereo not drawn): the melting point came out at 96.7 °C.
The result for `COc1ccc(C#N)c(F)c1O` reads 198 to 200 °C; that for `CCCCc1oc2ccccc2c1-c1ccc(-c2ccc(O)cc2)cc1`, 128 to 129 °C.
`CCCCCCCCCCCCCCCCSCC(CNS(=O)(=O)CCCI)NC(=O)OC` (stereo not drawn) yielded a melting point of 79 to 81 °C.
For `COc1cc(Nc2c(C#N)cnc3ccc(-c4csc(CN5CCOCC5)c4)cc23)c(Cl)cc1Cl`, the melting point was in the range of 145 to 147 °C.
As for `COc1ccc(CN2Cc3c(C(N)=O)ncn3-c3ccc(Cl)cc3C2=O)c(OC)c1`, the melting point was over 220 °C.
The result for `COCc1cc(C)nc2c(OCc3ccccc3)cccc12` reads 73.7 to 76.3 °C; that for `CN(C)Cc1nnc2n1-c1ccc(Cl)cc1C(c1ccccc1Cl)=NC2`, 199 to 201 °C.
In turn, `COc1cc(F)ccc1C(F)C1CCCCn2c1nc(-c1ccncn1)cc2=O` (racemic) displayed a melting point of 228 to 230 °C.
For `O=C1c2ccccc2C(=O)N1CC(=O)N1c2ccccc2N(Cc2ccccc2)C(=O)CC1c1ccccc1` (stereo not drawn), the melting point fell in the range of 127 to 128 °C.
The result for `CCCn1c(=O)c2c(NC)n[nH]c2n(Cc2ccc(Br)cc2)c1=O` reads 308 to 310 °C.
The result for `Oc1nc2ccc(Cl)cc2nc1O` reads over 260 °C; that for `CC(=O)Oc1cccc(C(=O)N[C@H]2COC(C)(C)OC[C@@H]2OS(C)(=O)=O)c1C`, 127 to 128 °C.
The result for `COc1ccc(N2CCN(c3ccc(-n4c(C)nn(CC(=O)c5ccc(Cl)cc5)c4=O)cc3)CC2)cc1` reads 230 °C; that for `CCCCNc1c(C(=O)OCC)c(C)nc(NCC)c1[N+](=O)[O-]`, 53 to 55 °C; that for `O=C1CCCN1CC1(O)CCN(c2ccnc(C(F)(F)F)n2)CC1`, 170 to 172 °C.
`CCCCCCCCCCCCCC/C=C\CNC(=O)OC(C)(C)C` had a melting point of 42 to 46 °C.
The result for `CN(c1ccc2sccc2c1)c1nc(=O)c2cccnc2s1` reads 214 to 216 °C; that for `O=C(O)c1cccc(-c2cccc3c2OC(Cc2cccc(C(F)(F)F)c2)C3)c1` (stereo not drawn), 156 to 157 °C; that for `NN1C=Nc2ccc(Cl)cc2C1(O)c1ccccc1Cl` (stereo not drawn), 198 °C.
The result for `CCCOc1ccccc1-c1nc2cc3ncn(Cc4ccc(Cl)cc4)c3cc2c(=O)[nH]1` reads 136 to 137 °C; that for `CCCCNc1c(C(=O)OCC)cnc2[nH]ncc12`, 181 °C.
The result for `CCC(=O)NC1Cc2ccccc2C(c2ccccc2)C1` (stereo not drawn) reads 144 to 146 °C; that for `O=C(Nc1ccccc1Nc1ccnc2c(NC(=O)c3c(Cl)cccc3Cl)cccc12)c1cccnc1`, 151 to 154 °C.
In turn, `O=[N+]([O-])N=C1NCCN1Cc1ccc(F)nc1` displayed a melting point of 121 to 124 °C.
The molecule `N#Cc1ccc(Cc2cccnc2)cc1` came in with a melting point of 155 to 157 °C.
The result for `CCc1nn(CCO)c(CC)c1Cc1c(F)cccc1F` reads 70 to 71 °C; that for `Cc1cccc2c(=O)[nH]c(C3CN4CCC3CC4)nc12` (stereo not drawn), 230 to 231 °C.
The result for `Cc1cc(-c2ccc(Cl)cc2)nc(-n2cnc(-c3ncc(S(N)(=O)=O)s3)c2)n1` reads 256 °C; that for `CC(C)C(C(=O)CCC(NC(=O)OCc1ccccc1)C(=O)OCc1ccccc1)C(=O)OC(C)(C)C` (stereo not drawn), 69 to 71 °C; that for `CN(C)S(=O)(=O)c1cc(-c2csc(=Nc3ccccc3)n2C2CC2)ccc1Cl`, 156 to 159 °C.
The result for `O=C1c2c(O)cccc2C(c2cccs2)c2cccc(O)c21` reads 181 to 182 °C; that for `O=C1CCCN1CCCCCCN1CCCC1=O`, 101 to 103 °C.
The molecule `O=S1CC2CC(CN(Cc3ccccc3)C2)C1` (stereo not drawn) returned a melting point of 137 to 138 °C.
The molecule `Cc1ccc(C(NC(c2ccccc2)c2ccccc2)P(O)O)cc1` (stereo not drawn) came in with a melting point of 208 to 209 °C.
`CCN1C(=O)CCCc2cc(Nc3ncc(Cl)c(Nc4cc(Cl)ccc4OC)n3)c(OC)cc21` displayed a melting point of 194 to 196 °C.
The result for `Cc1cnc2n1N=C(c1ccc(F)cc1)c1cc3c(cc1C2)OCO3` reads 190 °C.
Turning to `NC(=O)c1sc2nc(N3CCC(NCC(O)c4cccnc4)CC3)cc(C(F)(F)F)c2c1N` (stereo not drawn), the melting point fell in the range of 179 to 181 °C.
Regarding `COc1cc2ncnc(N3CCC(C4(C)CO4)CC3)c2cc1OC` (stereo not drawn), the melting point lay in the range of 125 to 128 °C.
The result for `Cc1nc2scc(C)n2c(=O)c1CCN1CCC(C2(c3ccc(F)cc3)OCCO2)CC1` reads 140 °C; that for `NCCc1c[nH]c(=O)[nH]c1=O`, 214 to 220 °C; that for `COC(=O)c1ccc2c(nc(C)n2Cc2ccccc2)c1C(=O)OC`, 192 to 195 °C.
The result for `O=C1N(CC2COCCO2)c2ccccc2C12COc1cc3c(cc12)OCCO3` (stereo not drawn) reads 198 to 199 °C; that for `COc1cc(-c2csc(C3CC3)n2)cc2oc(=O)c(C)c(C)c12`, 151 °C; that for `c1csc(-c2ncc(COc3ccc(CCCn4ccnc4)cc3)s2)c1`, 112 to 113 °C.
In turn, `CCOC(=O)c1cc2c3ccccc3n(CCCc3ccccc3)c2cn1` had a melting point of 140 to 142 °C.
The result for `O=Cc1[nH]cc2c1CN=C(c1ccccc1Cl)c1cc(Cl)ccc1-2` reads 270 to 274 °C; that for `N#CC(Sc1ccccc1)=C1SCCN1c1ccccc1`, 143 to 145 °C.
`CSc1noc(-c2ccc(OCCOc3ccc(C)cc3)cc2)c1C#N` registered a melting point of 139 to 140 °C.
The result for `O=[N+]([O-])c1ccc(O)c(COCCO)c1` reads 132 °C; that for `Nc1cc(-n2c(=O)n(-c3ccccc3)c3ccccc32)ccn1`, 184 to 185 °C; that for `CC(C)(C)OCC(NC(=O)c1ccc2c(Cl)cnc(NC(=N)N)c2c1)C(=O)OC(C)(C)C` (racemic), 215 to 219 °C.
`COc1cccc(CNC(=O)c2cc3c(=O)n(Cc4ccc([N+](=O)[O-])nc4)c(=O)n(C)c3s2)c1` showed a melting point of 213 to 215 °C.
The result for `Cc1ccc2c(c1)N(CC(=O)c1ccccc1C)C(=O)C(NC(=O)Nc1cccc(C(=O)O)c1)CN2C(=O)c1cccs1` (stereo not drawn) reads 219 to 222 °C.
The result for `CC(C)(C)OC(=O)N(C(=O)OC(C)(C)C)C(=O)c1cc2cc(Br)ccc2o1` reads 138 to 139 °C; that for `CN(C)C(=O)c1ccc2ccccc2c1/C=C/c1ccccc1`, 114 to 116 °C; that for `COc1cc(C(=O)CBr)cc(OC)c1OC(C)=O`, 124 to 126 °C.
The result for `CCCCCCCCCCCCCCC(CCCCCC(=O)O)CCCCCC(=O)O` reads 48 to 50 °C; that for `O=C(C[C@@H]1COCCO1)N[C@H]1CC[C@H](CCN2CCC(c3cccc4c3CCO4)CC2)CC1`, 190 °C; that for `O=C(O)C1CCc2c(c3ccccc3n2Cc2ccccc2)C1` (stereo not drawn), 195 to 196 °C.
On to `CC(C)Nc1nc2cc(Cl)c(Cl)cc2n1C1OC(CO)C(O)C1O` (stereo not drawn), for which the melting point fell in the range of 197 to 199 °C.
The result for `CCOC(=O)/C(=N\OC1(C)CCCC1)c1csc(N)n1` reads 94 to 95 °C; that for `COc1cc(OC)cc(-c2nc[nH]c2-c2ccc(OC)c(O)c2O)c1`, 132 to 134 °C; that for `COC(=O)c1cc(C)c(C(OC(=O)C(C)c2ccc3cc(OC)ccc3c2)c2cc(-n3ccnc3)ccc2C)c(C)c1` (stereo not drawn), 115 to 117 °C.
The molecule `COc1ccc(N2CCN(c3c(C)c(C)c4c(c3C)CC(C)(Cn3cccn3)O4)CC2)cc1` (stereo not drawn) yielded a melting point of 117 to 120 °C.
The result for `CCCOc1cccc2c1OCN(CCc1ccccc1)C2` reads 84 °C; that for `O=C1C2CCN(CC2)C1Cc1cccnc1` (stereo not drawn), 95 °C; that for `CC(C)CCCC(NC(=O)OC(C)(C)C)c1nc(-c2cccc(Br)c2)c[nH]1` (stereo not drawn), 134 to 136 °C.
Molecule `CC(=O)OC1CSC(Oc2cncc(-c3ccnc(Cl)c3)c2)C(OC(C)=O)C1OC(C)=O` (stereo not drawn) gave a melting point of 105 to 108 °C.
The result for `CC(C#Cc1ccc(C(O)c2cc3ccccc3s2)s1)N(O)C(N)=O` (stereo not drawn) reads 65 to 70 °C; that for `CCOC(=O)C1=C(C)NC(SCc2ccc(OC)cc2)=NC1c1cccc([N+](=O)[O-])c1Cl` (stereo not drawn), 155 to 157 °C; that for `CC1=C(O)CCC(C)(C)C1=O`, 112 to 114 °C.
The result for `Fc1ccc(-c2ccc(-c3cc(N4CCNCC4)nnc3C(F)(F)F)cc2)cc1` reads 162 °C.
The result for `Oc1cccc(CCc2nc(-c3ccsc3)c(-c3ccsc3)o2)c1` reads 144 to 145 °C; that for `CC(C)=CCN1c2ccccc2NC(=O)C1C` (racemic), 92 to 93 °C.
Take `CON=C(Cl)c1ccccc1S(=O)(=O)NC(=O)Nc1nc(C)cc(OC)n1`: the melting point was in the range of 178 to 179 °C.
The result for `O=C(O)c1c(O)c(-c2ccc(-c3ccccc3)cc2)nc2c(Cl)cc(Cl)cc12` reads 215 to 217 °C; that for `CN1C(=O)C(NC(=O)CCC2CCCCC2)N=C(c2ccccc2)c2ccsc21` (stereo not drawn), 189 to 190 °C.
